Experiment [1] is filed under the species Sus scrofa. Briefly: Kinetic constant in the presence of porcine carboxypeptidase B.
The species entered for experiment [2] is Sus scrofa. Briefly: Specificity constant kcat/Km was obtained at pH of 7.9, 25 degree C by the porcine carboxypeptidase B.

Molecules are shown by their SMILES.

As usually defined, the Km is the concentration of substrate that gives half-maximal velocity. As to `COc1ccc(/N=N/C(=O)N[C@@H](CCCN=C(N)N)C(=O)O)cc1`, in experiment [1], the Km came out at 44 µM and the k cat turned out to be 44 s⁻¹. In addition, the k cat/Km in experiment [2] is 1e+06 M⁻¹ s⁻¹.

For the origin of these results see ChEMBL document CHEMBL1135287, “Anisylazoformylarginine: a superior assay substrate for carboxypeptidase B type enzymes” (Bioorg Med Chem Lett, 2002).
